Data from patent publication US6140354A, “N-substituted aminotetralins as ligands for the neuropeptide Y Y5 receptor useful in the treatment of obesity and other disorders” (Ortho-McNeil Pharmaceutical, Inc., priority 1999, dated 2000).

Molecular target: T1, human neuropeptide Y5 receptor (Homo sapiens, UniProt Q15761)
T1 construct: expressed in transfected cells
T1 sequence (Q15761 1-445): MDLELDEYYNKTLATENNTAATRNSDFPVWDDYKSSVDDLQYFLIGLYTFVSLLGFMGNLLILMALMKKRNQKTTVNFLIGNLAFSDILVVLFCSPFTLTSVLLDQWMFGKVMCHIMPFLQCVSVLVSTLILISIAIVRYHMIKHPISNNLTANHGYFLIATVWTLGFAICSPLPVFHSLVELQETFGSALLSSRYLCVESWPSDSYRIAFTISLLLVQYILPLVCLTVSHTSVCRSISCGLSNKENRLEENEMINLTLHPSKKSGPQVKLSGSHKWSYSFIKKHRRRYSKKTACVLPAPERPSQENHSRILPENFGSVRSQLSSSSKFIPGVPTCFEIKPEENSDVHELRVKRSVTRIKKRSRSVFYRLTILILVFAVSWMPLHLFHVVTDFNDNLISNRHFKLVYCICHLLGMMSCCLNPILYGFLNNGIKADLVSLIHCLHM
Assay: NPY5 HTS Centrifugation Assay: competition with 125I-PYY for binding to NPY5-transfected HEK293 cell membranes
Conditions: 80 pM 125I-PYY, 1 hr room temperature, read-out: % Inh @ 3 uM (% Inhibition of ^125 I-PYY Binding)
Experimental: The compounds described in this invention were evaluated for binding to the human neuropeptide Y5 receptor.
The human NPY5 receptor cDNA (Genbank Accession number U66275) was inserted into the vector pClneo (Invitrogen) and transfected into human embryonic kidney cells (HEK-293) via Calcium phosphate method (Cullen 1987). Stably transfected cells were selected with G-418 (600 ug/mL). Stably transfected cells served as the source for the membranes for the NPY5 receptor binding assay.
NPY5-transfected HEK293 cells were grown to confluence in 150 cm^2 culture dishes. Cells were washed once with phosphate-buffered saline (Gibco Cat#14040-133). Cells were then incubated in phosphate-buffered saline without Calcium and without Magnesium, supplemented with 2 mM EDTA. Cells were incubated for 10 minutes at room temperature and the cells were collected by repetitive pipeting. Cells were formed into pellets and then frozen at -80 until needed. Frozen pellets were homogenized with a polytron at full speed for 12 seconds in a homogenization buffer (20 mM Tris HCl, 5 mM EDTA, pH 7.4). Homogenates were centrifuged for 5 minutes at 4C at 200 g. Supernatants were transferred to corex tubes and centrifuged for 25 minutes at 28,000 g. Pellets were re-suspended in Binding (20 mM HEPES, 10 mM NaCl, 0.22 mM KH2 PO4, 1.3 mM CaCl2, 0.8 mM MgSO4, pH 7.4). Membranes were kept on ice until use.
A competition binding assay, known to those skilled in the art, was used in which aminotetralins (I) compete with ^125 I-PYY for binding to cell membranes. In simple terms, the less ^125 I-PYY bound to the membranes implies that a compound is a good inhibitor (competitor). Bound ^125 I-PYY is determined by centrifugation of membranes, aspirating supernatant, washing away residual ^125 I-PYY and subsequently counting the bound sample in a g-counter.
Compounds to be tested were prepared as 10× stocks in binding buffer and added first to assay tubes (RIA vials, Sarstedt). Twenty (20) μL of each 10× compound stock is pipeted into vials and 80 μL of ^125 I-PYY (NEN catalog number NEX240), which has been diluted to a concentration of 200 pM in 0.25% BSA in binding buffer, is added to the compound tubes (final concentration of ^125 I-PYY is 80 pM). To each tube is added 100 μL of membranes and the mixture is agitated by pipeting 2 times. Samples are incubated for 1 hr at room temperature. Aluminum cast plates (Sarstedt) containing the vials are then centrifuged 10 minutes at 3200 rpm in a Sorvall RT6000. Supernatant is then aspirated. To each vial 400 μL PBS is added and this is then aspirated again. Vials are then put in carrier polypropylene 12×75 tube and counted in gamma counter (Packard). Non-specific binding is determined in the presence of 300 nM NPY. Percent inhibition of ^125 I-PYY binding is calculated by subtracting non-specific binding from the test samples (compound (I)), taking these counts and dividing by total binding, and multiplying by 100. Inhibitory concentration values (IC50) of compounds that show appreciable inhibition of ^125 I-PYY binding are calculated by obtaining percent inhibition of ^125 I-PYY binding values at different concentrations of the test compound, and using a graphing program such as GraphPad Prism (San Diego, Calif.) to calculate the concentration of test compound that inhibits fifty-percent of ^125 I-PYY binding (Table 4). These operations are known to those skilled in the art.

`COc1ccc2c(c1)CC[C@H](NC[C@H]1CC[C@H](CNS(=O)(=O)c3ccccc3)CC1)[C@@H]2Cc1ccccc1` (relative stereo) [Compound 52] showed an inhibition at 3 µM of 99%.

With `CCC[C@@H]1c2ccc(OC)cc2CC[C@@H]1NC[C@H]1CC[C@H](CNS(=O)(=O)c2ccccc2)CC1` (relative stereo) [Compound 42, rac-[1α,2α(trans)]-N-[[[[[1,2,3,4-tetrahydro-6-methoxy-1-(n-propyl)-2-naphthalenyl]amino]methyl]-4-cyclohexyl]methyl] benzenesulfonamide] the inhibition at 3 µM was 101%.

With `COc1ccc2c(c1)CCC(NC1CCC(NS(=O)(=O)c3ccc4ccccc4c3)CC1)C2Cc1ccccc1` (stereo not shown) [Compound 50] the inhibition at 3 µM was 44%.

With `O=S(=O)(NC[C@H]1CC[C@H](CNC2CCc3ccc(Cl)cc3C2Cc2ccccc2)CC1)c1ccccc1` (stereo partly shown) [Compound 104] the inhibition at 3 µM was 97%.

`O=S(=O)(NC[C@H]1CC[C@H](CNC2CCc3cc(F)c(F)cc3C2Cc2ccccc2)CC1)c1ccccc1` (relative stereo) [Compound 107] showed an inhibition at 3 µM of 103%.

Work on `COc1ccc2c(c1)CC[C@H](NC[C@H]1CC[C@H](CNS(=O)(=O)c3ccc4ccccc4c3)CC1)[C@@H]2Cc1cccnc1` (relative stereo) [Compound 18, rac-[1α,2α(trans)]-N-[[[[[1,2,3,4-tetrahydro-6-methoxy-1-(3-pyridinylmethyl)-2-naphthalenyl]amino]methyl]-4-cyclohexyl]methyl]2-naphthalenesulfonamide] yielded an inhibition at 3 µM of 96%.

`COc1ccc2c(c1)CCC(NC[C@H]1CC[C@H](CNS(=O)(=O)c3ccccc3C(F)(F)F)CC1)C2Cc1ccccc1` (stereo partly shown) [Compound 65] was tested, and the inhibition at 3 µM was 0%.

`O=S(=O)(NC[C@H]1CC[C@H](CNC2CCc3cc(F)ccc3C2Cc2ccccc2)CC1)c1ccc(Cl)cc1Cl` (stereo partly shown) [Compound 76] gave an inhibition at 3 µM of 99%.

Work on `O=S(=O)(NC[C@H]1CC[C@H](CNC2CCc3cc(F)ccc3C2Cc2ccccc2)CC1)c1ccccc1Cl` (relative stereo) [Compound 73] yielded an inhibition at 3 µM of 107%.

`COc1ccc(CC2c3ccc(OC)cc3CCC2NC[C@H]2CC[C@H](CNS(=O)(=O)c3ccccc3)CC2)cc1` (stereo partly shown) [Compound 86] gave an inhibition at 3 µM of 25%.

`O=S(=O)(NCCCCCN[C@H]1CCc2ccccc2[C@H]1Cc1ccccc1)c1ccc2ccccc2c1` (relative stereo) [Compound 46] gave an inhibition at 3 µM of 89%.

For `COc1ccc2c(c1)CCC(NC[C@H]1CC[C@H](CNS(=O)(=O)c3cccc(F)c3)CC1)C2Cc1ccccc1` (stereo partly shown) [Compound 60], the inhibition at 3 µM was 94%.

`O=[N+]([O-])c1ccccc1S(=O)(=O)NC[C@H]1CC[C@H](CNC2CCc3cc(Cl)ccc3C2Cc2ccccc2)CC1` (stereo partly shown) [Compound 64] showed an inhibition at 3 µM of 93%.

Compound `O=S(=O)(NC1CCC(CNC2CCc3ccccc3C2Cc2cccnc2)CC1)c1ccccc1` (stereo not shown) [Compound 112] has an inhibition at 3 µM of 95%.

`O=S(=O)(NC[C@H]1CC[C@H](CNC2CCc3cc(F)ccc3C2Cc2ccccc2)CC1)c1c(Cl)cccc1Cl` (stereo partly shown) [Compound 77] showed an inhibition at 3 µM of 102%.

`COc1ccc2c(c1)CCC(NC[C@H]1CC[C@H](CNS(=O)(=O)c3ccccc3[N+](=O)[O-])CC1)C2Cc1c(F)cccc1F` (relative stereo) [Compound 90] gave an inhibition at 3 µM of 97%.

`COc1ccc2c(c1)CCC(NC[C@H]1CC[C@H](CNS(=O)(=O)c3ccccc3)CC1)C2Cc1ccc2ccccc2c1` (relative stereo) [Compound 81] was tested, and the inhibition at 3 µM was 89%.

`COc1ccc2c(c1)CCC(NC[C@H]1CC[C@H](CNS(=O)(=O)c3ccccc3[N+](=O)[O-])CC1)C2Cc1ccc([N+](=O)[O-])cc1` (relative stereo) [Compound 88] gave an inhibition at 3 µM of 85%.

For `COc1ccc2c(c1)CC[C@H](NCCCCCCCNS(=O)(=O)c1ccc3ccccc3c1)[C@@H]2Cc1ccccc1` (relative stereo) [Compound 47], the inhibition at 3 µM was 79%.

`COc1ccc2c(c1)CC[C@H](NCc1ccc(CNS(=O)(=O)c3ccc4ccccc4c3)cc1)[C@@H]2Cc1ccccc1` (relative stereo) [Compound 49] showed an inhibition at 3 µM of 60%.

`COc1ccc2c(c1)CC[C@H](NC[C@H]1CC[C@H](CNS(=O)(=O)c3cccc4ccccc34)CC1)[C@@H]2Cc1ccccc1` (relative stereo) [Compound 51] showed an inhibition at 3 µM of 95%.

Compound `COc1ccc2c(c1)CCC(NC[C@H]1CC[C@H](CNS(=O)(=O)c3ccc4ccccc4c3)CC1)C2Cc1ccc2ccccc2c1` (relative stereo) [Compound 82] has an inhibition at 3 µM of 54%.

`COc1ccc2c(c1)CC[C@H](NC[C@H]1CC[C@H](CNS(=O)(=O)c3ccccc3)CC1)[C@@H]2CCCO` (relative stereo) [Compound 40, rac-[1α,2α(trans)]-N-[[[[[1,2,3,4-tetrahydro-6-methoxy-1-(3-hydroxypropyl)-2-naphthalenyl]amino]methyl]-4-cyclohexyl]methyl] benzenesulfonamide] gave an inhibition at 3 µM of 91%.

Compound `COc1ccc2c(c1)CCC(NC[C@H]1CC[C@H](CNS(=O)(=O)c3ccc4ccccc4c3)CC1)C2Cc1cccc(Cl)c1` (stereo partly shown) [Compound 93] has an inhibition at 3 µM of 60%.

`COc1ccc2c(c1)CCC(NC[C@H]1CC[C@H](CNS(=O)(=O)c3ccc(F)cc3)CC1)C2Cc1ccccc1` (relative stereo) [Compound 58] showed an inhibition at 3 µM of 91%.

Work on `COc1ccc2c(c1)CCC(NC[C@H]1CC[C@H](CNS(=O)(=O)c3ccccc3)CC1)C2Cc1cccc(C(F)(F)F)c1` (stereo partly shown) [Compound 99] yielded an inhibition at 3 µM of 99%.

In the case of `COc1cc2c(cc1OC)C(Cc1ccccc1)C(NC[C@H]1CC[C@H](CNS(=O)(=O)c3ccccc3)CC1)CC2` (relative stereo) [Compound 108], the inhibition at 3 µM is reported as 99%.

Work on `C=CC[C@@H]1c2ccc(OC)cc2CC[C@@H]1NC[C@H]1CC[C@H](CNS(=O)(=O)c2ccccc2)CC1` (relative stereo) [Compound 39, rac-[1α,2α(trans)]-N-[[[[[1,2,3,4-tetrahydro-6-methoxy-1-(1-propene-3-yl)-2-naphthalenyl]amino]methyl]4-cyclohexyl]methyl] benzenesulfonamide] yielded an inhibition at 3 µM of 102%.

With `COc1ccc2c(c1)CC[C@H](NC[C@H]1CC[C@H](CNS(=O)(=O)c3cccs3)CC1)[C@@H]2Cc1ccccc1` (relative stereo) [Compound 59] the inhibition at 3 µM was 102%.

Work on `COc1ccc2c(c1)CCC(NC[C@H]1CC[C@H](CNS(=O)(=O)c3cc(Cl)cc(Cl)c3)CC1)C2Cc1ccccc1` (relative stereo) [Compound 56] yielded an inhibition at 3 µM of 73%.

In the case of `COc1ccc2c(c1)CCC(NC[C@H]1CC[C@H](CNS(=O)(=O)c3ccc4ccccc4c3)CC1)C2Cc1cccc(C(F)(F)F)c1` (stereo partly shown) [Compound 94], the inhibition at 3 µM is reported as 45%.
